Measurements: ChEMBL document CHEMBL3885861, “Open TG-GATES”

Species: Rattus norvegicus
Test: Open TG-GATES - Regimen: Daily Repeat
Type: toxicity, organism-based, Sprague-Dawley
Parameters: regimen Daily Repeat, gender Male, age 6 weeks
Settings: in vivo, po, route gavage; for Bas / Eos / Fbg / Ht / MCHC / Mono / Plat / RBC / Ret / WBC / MCV: tissue Blood; for KIDNEY_L / KIDNEY_R / KIDNEY_TOTAL: tissue Kidney; for ALT / AST / CRE / DBIL / GLC / IP / K / LDH / PL / RALB / TBIL / TC / TG / TP / gamma-GTP: tissue Plasma
[1] = 100 mg/kg, 72 h, dose level Middle, time 3 day
[2] = 100 mg/kg, […], dose level Middle, time 7 day
[3] = 100 mg/kg, […], dose level Middle, time 14 day
[4] = 100 mg/kg, […], dose level Middle, time 28 day
[5] = 1000 mg/kg, 72 h, dose level High, time 3 day
[6] = 1000 mg/kg, […], dose level High, time 7 day
[7] = 1000 mg/kg, […], dose level High, time 14 day
[8] = 1000 mg/kg, […], dose level High, time 28 day

CC(C)OC(=O)C(C)(C)Oc1ccc(C(=O)c2ccc(Cl)cc2)cc1 [FENOFIBRATE]
TERMINAL_BW [1]: 219 g
Bas [1]: 0.2%
Eos [1]: 1%
Fbg [1]: 242.4 mg/dL
Ht [1]: 40.5%
MCHC [1]: 32.9%
Mono [1]: 3.4%
Plat [1]: 110.8 x10_4/uL
RBC [1]: 619.6 x10_4/ul
Ret [1]: 6.7%
WBC [1]: 92.3 x10_2/uL
KIDNEY_L [1]: 1 g
KIDNEY_R [1]: 1 g
KIDNEY_TOTAL [1]: 1.9 g
ALT [1]: 52 IU/L
AST [1]: 77.6 IU/L
CRE [1]: 0.2 mg/dL
DBIL [1]: 0.012 mg/dL
GLC [1]: 184.2 mg/dL
IP [1]: 7.5 mg/dL
K [1]: 4.1 meq/L
LDH [1]: 90 IU/L
PL [1]: 118.6 mg/dL
RALB [1]: 2.6 g/dL
TBIL [1]: 0.034 mg/dL
TC [1]: 58.6 mg/dL
TG [1]: 41.6 mg/dL
TP [1]: 5.5 g/dL
gamma-GTP [1]: 1.2 IU/L
TERMINAL_BW [2]: 251.5 g
TERMINAL_BW [3]: 311 g
TERMINAL_BW [4]: 352.5 g
Bas [2]: 0.2%
Eos [2]: 1%
Fbg [2]: 232.2 mg/dL
Ht [2]: 40.3%
MCHC [2]: 32.4%
Mono [2]: 4%
Plat [2]: 127.1 x10_4/uL
RBC [2]: 650.8 x10_4/ul
Ret [2]: 5.7%
WBC [2]: 98.5 x10_2/uL
Bas [3]: 0%
Eos [3]: 0.8%
Fbg [3]: 230 mg/dL
Ht [3]: 40.9%
MCHC [3]: 32.9%
Mono [3]: 3.2%
Plat [3]: 131.7 x10_4/uL
RBC [3]: 660.8 x10_4/ul
Ret [3]: 5.1%
WBC [3]: 106.3 x10_2/uL
Bas [4]: 0.8%
Eos [4]: 1.2%
Fbg [4]: 207.2 mg/dL
Ht [4]: 44.3%
MCHC [4]: 33.6%
MCV [4]: 56.8 fL
Mono [4]: 3.2%
Plat [4]: 107.6 x10_4/uL
RBC [4]: 780.8 x10_4/ul
Ret [4]: 2.4%
WBC [4]: 148.1 x10_2/uL
KIDNEY_L [2]: 1.1 g
KIDNEY_R [2]: 1.1 g
KIDNEY_TOTAL [2]: 2.2 g
KIDNEY_L [3]: 1.3 g
KIDNEY_R [3]: 1.3 g
KIDNEY_TOTAL [3]: 2.6 g
KIDNEY_L [4]: 1.4 g
KIDNEY_R [4]: 1.4 g
KIDNEY_TOTAL [4]: 2.8 g
ALT [2]: 41.2 IU/L
AST [2]: 67.8 IU/L
CRE [2]: 0.2 mg/dL
DBIL [2]: 0.012 mg/dL
GLC [2]: 186.8 mg/dL
IP [2]: 8 mg/dL
K [2]: 4.3 meq/L
LDH [2]: 126.2 IU/L
PL [2]: 119.8 mg/dL
RALB [2]: 2.8 g/dL
TBIL [2]: 0.028 mg/dL
TC [2]: 55.6 mg/dL
TG [2]: 47.4 mg/dL
TP [2]: 5.9 g/dL
gamma-GTP [2]: 1 IU/L
ALT [3]: 43 IU/L
AST [3]: 69 IU/L
CRE [3]: 0.2 mg/dL
DBIL [3]: 0.014 mg/dL
GLC [3]: 192.8 mg/dL
IP [3]: 6.9 mg/dL
K [3]: 4.1 meq/L
LDH [3]: 106.8 IU/L
PL [3]: 135.2 mg/dL
RALB [3]: 2.8 g/dL
TBIL [3]: 0.026 mg/dL
TC [3]: 57.8 mg/dL
TG [3]: 78 mg/dL
TP [3]: 6 g/dL
gamma-GTP [3]: 1 IU/L
ALT [4]: 47.6 IU/L
AST [4]: 69.2 IU/L
CRE [4]: 0.2 mg/dL
DBIL [4]: 0.016 mg/dL
GLC [4]: 179 mg/dL
IP [4]: 7.6 mg/dL
K [4]: 3.8 meq/L
LDH [4]: 110.8 IU/L
PL [4]: 129.8 mg/dL
RALB [4]: 3 g/dL
TBIL [4]: 0.036 mg/dL
TC [4]: 55 mg/dL
TG [4]: 60.2 mg/dL
TP [4]: 6.5 g/dL
gamma-GTP [4]: 1.2 IU/L
TERMINAL_BW [5]: 215.9 g
Bas [5]: 0.4%
Eos [5]: 1%
Fbg [5]: 208.2 mg/dL
Ht [5]: 39.5%
MCHC [5]: 33%
Mono [5]: 3.6%
Plat [5]: 105.8 x10_4/uL
RBC [5]: 610.6 x10_4/ul
Ret [5]: 5.6%
WBC [5]: 91.7 x10_2/uL
KIDNEY_L [5]: 0.9 g
KIDNEY_R [5]: 1 g
KIDNEY_TOTAL [5]: 1.9 g
ALT [5]: 51.4 IU/L
AST [5]: 83.8 IU/L
CRE [5]: 0.2 mg/dL
DBIL [5]: 0.022 mg/dL
GLC [5]: 176.8 mg/dL
IP [5]: 7.3 mg/dL
K [5]: 4.3 meq/L
LDH [5]: 105.8 IU/L
PL [5]: 129.2 mg/dL
RALB [5]: 2.6 g/dL
TBIL [5]: 0.048 mg/dL
TC [5]: 57 mg/dL
TG [5]: 33.6 mg/dL
TP [5]: 5.4 g/dL
gamma-GTP [5]: 1 IU/L
TERMINAL_BW [6]: 248.7 g
TERMINAL_BW [7]: 269.5 g
TERMINAL_BW [8]: 320.8 g
Bas [6]: 0%
Eos [6]: 1%
Fbg [6]: 222.2 mg/dL
Ht [6]: 39.1%
MCHC [6]: 32.3%
Mono [6]: 3.4%
Plat [6]: 147.3 x10_4/uL
RBC [6]: 612.2 x10_4/ul
Ret [6]: 5.8%
WBC [6]: 113.4 x10_2/uL
Bas [7]: 0.4%
Eos [7]: 1%
Fbg [7]: 192.8 mg/dL
Ht [7]: 39.9%
MCHC [7]: 33.3%
MCV [7]: 58.7 fL
Mono [7]: 3.4%
Plat [7]: 135.5 x10_4/uL
RBC [7]: 679.4 x10_4/ul
Ret [7]: 5.1%
WBC [7]: 149.7 x10_2/uL
Bas [8]: 0.4%
Eos [8]: 1.2%
Fbg [8]: 194.2 mg/dL
Ht [8]: 40.9%
MCHC [8]: 33.4%
MCV [8]: 57.2 fL
Mono [8]: 3.4%
Plat [8]: 117.4 x10_4/uL
RBC [8]: 716 x10_4/ul
Ret [8]: 3.9%
WBC [8]: 132.1 x10_2/uL
KIDNEY_L [6]: 1.1 g
KIDNEY_R [6]: 1.1 g
KIDNEY_TOTAL [6]: 2.2 g
KIDNEY_L [7]: 1.2 g
KIDNEY_R [7]: 1.2 g
KIDNEY_TOTAL [7]: 2.4 g
KIDNEY_L [8]: 1.4 g
KIDNEY_R [8]: 1.4 g
KIDNEY_TOTAL [8]: 2.8 g
ALT [6]: 45.8 IU/L
AST [6]: 80.6 IU/L
CRE [6]: 0.2 mg/dL
DBIL [6]: 0.018 mg/dL
GLC [6]: 178.8 mg/dL
IP [6]: 7.4 mg/dL
K [6]: 4.4 meq/L
LDH [6]: 122.6 IU/L
PL [6]: 142 mg/dL
RALB [6]: 3 g/dL
TBIL [6]: 0.034 mg/dL
TC [6]: 65.8 mg/dL
TG [6]: 38 mg/dL
TP [6]: 6.1 g/dL
gamma-GTP [6]: 1 IU/L
ALT [7]: 70 IU/L
AST [7]: 160.6 IU/L
CRE [7]: 0.2 mg/dL
DBIL [7]: 0.022 mg/dL
GLC [7]: 170.2 mg/dL
IP [7]: 6.6 mg/dL
K [7]: 4.1 meq/L
LDH [7]: 226.2 IU/L
PL [7]: 138 mg/dL
RALB [7]: 2.9 g/dL
TBIL [7]: 0.052 mg/dL
TC [7]: 50.6 mg/dL
TG [7]: 45.4 mg/dL
TP [7]: 6 g/dL
gamma-GTP [7]: 1 IU/L
ALT [8]: 55.8 IU/L
AST [8]: 132 IU/L
CRE [8]: 0.2 mg/dL
DBIL [8]: 0.024 mg/dL
GLC [8]: 176 mg/dL
IP [8]: 7.3 mg/dL
K [8]: 3.7 meq/L
LDH [8]: 205.2 IU/L
PL [8]: 139.8 mg/dL
RALB [8]: 2.9 g/dL
TBIL [8]: 0.06 mg/dL
TC [8]: 62.4 mg/dL
TG [8]: 47.6 mg/dL
TP [8]: 6.2 g/dL
gamma-GTP [8]: 1.2 IU/L
